Laboratory results from US8410112B2, “Compounds useful as inhibitors of ATR kinase” (Vertex Pharmaceuticals Incorporated, priority 2008, dated 2013).
pKi: −log10 of the molar value.

The compounds below were run against T1, full-length ATR (Homo sapiens, UniProt Q13535) (assay: ATR Inhibition Assay (radioactive-phosphate incorporation)). Details: Ki(app); 5 nM full-length ATR, 10 μM ATP, 800 μM target peptide, 25° C.
T1 construct: in the presence of 5 nM full-length ATR
Format: biochemical
Outline: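 Buffer was 50 mM Tris/HCl pH 7.5, 10 mM MgCl2, 1 mM DTT, with 5 nM enzyme, 10 μM [γ-33P]ATP and 800 μM target peptide at 25 °C. Compound was pre-incubated 10 min before ATP start, and the reaction was stopped after 24 h. Phosphocellulose filter capture; Ki(app) came from non-linear regression of background-corrected initial rates.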

T1 sequence (Q13535 whole entry): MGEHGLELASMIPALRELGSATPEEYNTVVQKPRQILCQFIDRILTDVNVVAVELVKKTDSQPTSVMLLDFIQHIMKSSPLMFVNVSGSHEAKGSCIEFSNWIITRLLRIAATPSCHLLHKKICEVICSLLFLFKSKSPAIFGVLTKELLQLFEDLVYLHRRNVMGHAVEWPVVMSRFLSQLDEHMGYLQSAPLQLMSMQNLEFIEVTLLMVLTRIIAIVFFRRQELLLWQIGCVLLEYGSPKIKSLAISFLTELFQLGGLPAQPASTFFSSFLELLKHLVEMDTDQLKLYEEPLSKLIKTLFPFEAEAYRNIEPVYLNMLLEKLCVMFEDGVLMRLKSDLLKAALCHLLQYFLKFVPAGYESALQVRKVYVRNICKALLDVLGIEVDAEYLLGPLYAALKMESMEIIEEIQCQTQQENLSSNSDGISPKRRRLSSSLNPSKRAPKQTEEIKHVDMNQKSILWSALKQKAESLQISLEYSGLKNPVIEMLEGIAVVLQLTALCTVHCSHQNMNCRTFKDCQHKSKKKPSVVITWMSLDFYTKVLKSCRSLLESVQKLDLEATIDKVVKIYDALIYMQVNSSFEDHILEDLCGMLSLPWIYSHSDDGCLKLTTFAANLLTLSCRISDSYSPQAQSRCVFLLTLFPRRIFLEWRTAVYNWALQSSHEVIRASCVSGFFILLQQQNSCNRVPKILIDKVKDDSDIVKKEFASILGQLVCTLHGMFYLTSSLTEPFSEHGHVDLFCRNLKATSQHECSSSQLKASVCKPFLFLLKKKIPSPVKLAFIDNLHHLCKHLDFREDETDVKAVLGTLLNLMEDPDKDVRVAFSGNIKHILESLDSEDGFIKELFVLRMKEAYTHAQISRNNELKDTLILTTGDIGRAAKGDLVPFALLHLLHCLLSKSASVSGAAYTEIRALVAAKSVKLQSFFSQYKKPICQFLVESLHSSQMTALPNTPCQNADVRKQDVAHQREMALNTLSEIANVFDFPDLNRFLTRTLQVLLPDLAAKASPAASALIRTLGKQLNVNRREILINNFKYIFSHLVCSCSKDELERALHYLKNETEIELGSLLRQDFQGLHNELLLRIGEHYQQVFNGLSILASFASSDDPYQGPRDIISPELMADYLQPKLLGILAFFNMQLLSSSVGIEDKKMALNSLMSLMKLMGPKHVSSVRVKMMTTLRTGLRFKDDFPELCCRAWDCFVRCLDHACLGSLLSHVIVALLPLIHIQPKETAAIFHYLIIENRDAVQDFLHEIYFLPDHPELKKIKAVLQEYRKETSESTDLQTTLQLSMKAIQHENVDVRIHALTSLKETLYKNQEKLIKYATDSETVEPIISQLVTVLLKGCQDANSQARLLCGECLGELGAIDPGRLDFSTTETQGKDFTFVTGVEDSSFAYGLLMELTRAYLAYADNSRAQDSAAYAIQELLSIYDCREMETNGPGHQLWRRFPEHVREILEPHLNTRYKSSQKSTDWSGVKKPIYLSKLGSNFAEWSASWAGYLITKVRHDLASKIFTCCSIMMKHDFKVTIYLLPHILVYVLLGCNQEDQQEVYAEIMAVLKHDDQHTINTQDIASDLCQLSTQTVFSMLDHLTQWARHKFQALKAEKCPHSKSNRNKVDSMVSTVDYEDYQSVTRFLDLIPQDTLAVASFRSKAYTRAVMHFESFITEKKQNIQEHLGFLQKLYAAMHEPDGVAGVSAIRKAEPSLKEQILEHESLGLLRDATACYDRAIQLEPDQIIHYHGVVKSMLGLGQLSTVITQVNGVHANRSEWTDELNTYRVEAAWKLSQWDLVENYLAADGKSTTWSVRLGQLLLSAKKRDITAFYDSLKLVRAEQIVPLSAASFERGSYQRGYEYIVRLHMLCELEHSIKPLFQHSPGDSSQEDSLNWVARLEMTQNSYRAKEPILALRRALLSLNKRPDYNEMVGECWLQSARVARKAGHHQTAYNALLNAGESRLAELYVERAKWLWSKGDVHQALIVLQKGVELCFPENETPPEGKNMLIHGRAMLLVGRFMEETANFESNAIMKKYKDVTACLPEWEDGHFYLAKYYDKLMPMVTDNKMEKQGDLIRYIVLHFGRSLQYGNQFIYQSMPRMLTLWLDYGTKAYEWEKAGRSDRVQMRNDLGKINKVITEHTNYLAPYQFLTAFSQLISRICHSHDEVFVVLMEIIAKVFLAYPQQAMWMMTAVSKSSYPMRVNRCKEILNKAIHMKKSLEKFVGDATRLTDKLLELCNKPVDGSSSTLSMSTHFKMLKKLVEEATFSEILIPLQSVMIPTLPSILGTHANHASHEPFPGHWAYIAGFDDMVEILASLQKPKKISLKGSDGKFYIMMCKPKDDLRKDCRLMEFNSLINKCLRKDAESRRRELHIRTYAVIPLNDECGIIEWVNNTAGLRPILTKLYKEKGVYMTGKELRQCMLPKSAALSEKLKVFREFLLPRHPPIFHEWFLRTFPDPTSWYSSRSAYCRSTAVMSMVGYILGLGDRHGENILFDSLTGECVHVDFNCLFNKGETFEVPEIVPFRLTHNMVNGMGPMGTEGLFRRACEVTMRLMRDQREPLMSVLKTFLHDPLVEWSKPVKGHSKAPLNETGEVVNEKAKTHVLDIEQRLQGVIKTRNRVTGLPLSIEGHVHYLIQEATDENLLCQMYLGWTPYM

SMILES | pKi
Nc1ncc(N2CC[C@H](NC(=O)c3ccccc3)C2)nc1-c1nc2ccccc2[nH]1 [Compound I-108, (S)-N-(1-(5-amino-6-(1H-benzo[d]imidazol-2-yl)pyrazin-2-yl)pyrrolidin-3-yl)benzamide] | 6.00 to 7.00
CN(C)S(=O)(=O)N1CCN(c2cnc(N)c(C(=O)Nc3ccccn3)n2)CC1 [Compound I-81, 3-amino-6-(4-(N,N-dimethylsulfamoyl)piperazin-1-yl)-N-(pyridin-2-yl)pyrazine-2-carboxamide] | 5.00 to 6.00
CCS(=O)(=O)N1CC=C(c2cnc(N)c(-c3nc4ccccn4n3)n2)CC1 [Compound I-276, 3-([1,2,4]triazolo[1,5-a]pyridin-2-yl)-5-(1-(ethylsulfonyl)-1,2,3,6-tetrahydropyridin-4-yl)pyrazin-2-amine] | 5.00 to 6.00
CCC(=O)N1CCN(c2cnc(N)c(-c3nnc(-c4ccc(CNC)cc4)o3)n2)CC1 [Compound I-327, 1-[4-[5-Amino-6-[5-[4-(methylaminomethyl)phenyl]-1,3,4-oxadiazol-2-yl]pyrazin-2-yl]piperazin-1-yl]propan-1-one] | > 7.00
NCCCS(=O)(=O)N1CC=C(c2cnc(N)c(-c3nc4ccccc4[nH]3)n2)CC1 [Compound I-331, 5-(1-(3-aminopropylsulfonyl)-1,2,3,6-tetrahydropyridin-4-yl)-3-(1H-benzo[d]imidazol-2-yl)pyrazin-2-amine] | > 7.00
Cc1ccc2nc(-c3nc(N4CCNC(=O)C4)cnc3N)[nH]c2c1 [Compound I-7, 4-(5-amino-6-(6-methyl-1H-benzo[d]imidazol-2-yl)pyrazin-2-yl)piperazin-2-one] | 6.00 to 7.00
CNC(=O)[C@H]1CCN(c2cnc(N)c(-c3nc4ccc(C)cc4[nH]3)n2)C1 [Compound I-70, (S)-1-(5-amino-6-(6-methyl-1H-benzo[d]imidazol-2-yl)pyrazin-2-yl)-N-methylpyrrolidine-3-carboxamide] | 5.00 to 6.00
Nc1ncc(C2=CCN(C(=O)c3ccccc3)CC2)nc1-c1nnc(-c2ccccc2)o1 [Compound I-103, (4-(5-amino-6-(5-phenyl-1,3,4-oxadiazol-2-yl)pyrazin-2-yl)-5,6-dihydropyridin-1(2H)-yl)(phenyl)methanone] | > 7.00
Nc1ncc(N2CCN(S(=O)(=O)c3ccccc3)CC2)nc1-c1nc2ccccc2[nH]1 [Compound I-110, 3-(1H-benzo[d]imidazol-2-yl)-5-(4-(phenylsulfonyl)piperazin-1-yl)pyrazin-2-amine] | 6.00 to 7.00
Nc1ncc(C2=CCNCC2)nc1-c1nnc(-c2ccccc2)o1 [Compound I-41, 3-(5-phenyl-1,3,4-oxadiazol-2-yl)-5-(1,2,3,6-tetrahydropyridin-4-yl)pyrazin-2-amine] | 6.00 to 7.00
CCCS(=O)(=O)N1CCN(c2cnc(N)c(-c3nc4ccccc4[nH]3)n2)CC1 [Compound I-95, 3-(1H-benzo[d]imidazol-2-yl)-5-(4-(propylsulfonyl)piperazin-1-yl)pyrazin-2-amine] | 6.00 to 7.00
Cc1ccc2nc(-c3nc(N4CCCC(N(C)C)C4)cnc3N)[nH]c2c1 (stereo not shown) [Compound I-51, 5-(3-(dimethylamino)piperidin-1-yl)-3-(6-methyl-1H-benzo[d]imidazol-2-yl)pyrazin-2-amine] | 5.00 to 6.00
Nc1ncc(N2CCN(S(=O)(=O)Cc3ccccc3)CC2)nc1-c1nc2ccccc2[nH]1 [Compound I-106, 3-(1H-benzo[d]imidazol-2-yl)-5-(4-(benzylsulfonyl)piperazin-1-yl)pyrazin-2-amine] | 6.00 to 7.00
COCCOC(=O)N1CC=C(c2cnc(N)c(-c3nc4ccccc4[nH]3)n2)CC1 [Compound I-243, 2-methoxyethyl 4-(5-amino-6-(1H-benzo[d]imidazol-2-yl)pyrazin-2-yl)-5,6-dihydropyridine-1(2H)-carboxylate] | 6.00 to 7.00
CCC(CC)C(=O)N1CCN(c2cnc(N)c(C(=O)Nc3ccccn3)n2)CC1 [Compound I-212, 3-amino-6-(4-(2-ethylbutanoyl)piperazin-1-yl)-N-(pyridin-2-yl)pyrazine-2-carboxamide] | 5.00 to 6.00
CN(C)S(=O)(=O)N1CCN(c2cnc(N)c(-c3nc4ccccc4[nH]3)n2)CC1 [Compound I-88, 4-(5-amino-6-(1H-benzo[d]imidazol-2-yl)pyrazin-2-yl)-N,N-dimethylpiperazine-1-sulfonamide] | 6.00 to 7.00
Nc1ncc(C2=CCN(C(=O)c3ccccc3)CC2)nc1-c1nc2ccccc2[nH]1 [Compound I-82, (4-(5-amino-6-(1H-benzo[d]imidazol-2-yl)pyrazin-2-yl)-5,6-dihydropyridin-1(2H)-yl)(phenyl)methanone] | > 7.00
CCS(=O)(=O)N[C@@H]1C2CN(c3cnc(N)c(-c4nnc(-c5ccc(CNC)cc5)o4)n3)C[C@@H]21 (stereo partly shown) [Compound I-369] | > 7.00
Nc1ncc(N2CCN(S(=O)(=O)C3CCCC3)CC2)nc1C(=O)Nc1ccccn1 [Compound I-248, 3-amino-6-(4-(cyclopentylsulfonyl)piperazin-1-yl)-N-(pyridin-2-yl)pyrazine-2-carboxamide] | 6.00 to 7.00

SMILES | pKi
COC(=O)N1CC=C(c2cnc(N)c(-c3nnc(-c4ccccc4)o3)n2)CC1 [Compound I-228, methyl 4-(5-amino-6-(5-phenyl-1,3,4-oxadiazol-2-yl)pyrazin-2-yl)-5,6-dihydropyridine-1(2H)-carboxylate] | > 7.00
CC(=O)N1CC=C(c2cnc(N)c(-c3nnc(-c4ccccc4)o3)n2)CC1 [Compound I-125, 1-(4-(5-amino-6-(5-phenyl-1,3,4-oxadiazol-2-yl)pyrazin-2-yl)-5,6-dihydropyridin-1(2H)-yl)ethanone] | > 7.00
CNCc1ccc(-c2nnc(-c3nc(N4CC[C@H](CNC(C)=O)C4)cnc3N)o2)cc1 [Compound I-317, N-[[(3R)-1-[5-Amino-6-[5-[4-(methylaminomethyl)phenyl]-1,3,4-oxadiazol-2-yl]pyrazin-2-yl]pyrrolidin-3-yl]methyl]acetamide] | > 7.00
Cc1ccc2nc(-c3nc(N4CCC(=O)CC4)cnc3N)[nH]c2c1 [Compound I-11, 1-(5-amino-6-(6-methyl-1H-benzo[d]imidazol-2-yl)pyrazin-2-yl)piperidin-4-one] | 5.00 to 6.00
CC(=O)N[C@H]1CCN(c2cnc(N)c(-c3nc4ccc(C)cc4[nH]3)n2)C1 [Compound I-4, (S)-N-(1-(5-amino-6-(6-methyl-1H-benzo[d]imidazol-2-yl)pyrazin-2-yl)pyrrolidin-3-yl)ethanamide] | 6.00 to 7.00
Nc1ncc(N2CCN(S(=O)(=O)c3cccs3)CC2)nc1-c1nc2ccccc2[nH]1 [Compound I-104, 3-(1H-benzo[d]imidazol-2-yl)-5-(4-(thiophen-2-ylsulfonyl)piperazin-1-yl)pyrazin-2-amine] | 6.00 to 7.00
Nc1ncc(N2CCN(C(=O)c3c(F)cccc3F)CC2)nc1-c1nc2ccccc2[nH]1 [Compound I-177, (4-(5-amino-6-(1H-benzo[d]imidazol-2-yl)pyrazin-2-yl)piperazin-1-yl)(2,6-difluorophenyl)methanone] | 6.00 to 7.00
CCC(CC)C(=O)N[C@H]1CCN(c2cnc(N)c(-c3nc4ccccc4[nH]3)n2)C1 [Compound I-211, (S)-N-(1-(5-amino-6-(1H-benzo[d]imidazol-2-yl)pyrazin-2-yl)pyrrolidin-3-yl)-2-ethylbutanamide] | 5.00 to 6.00
CCC(=O)N1CCN(c2cnc(N)c(-c3nnc(-c4ccc(CNC)cc4)o3)n2)CC1(C)C [Compound I-329, 1-[4-[5-Amino-6-[5-[4-(methylaminomethyl)phenyl]-1,3,4-oxadiazol-2-yl]pyrazin-2-yl]-2,2-dimethyl-piperazin-1-yl]propan-1-one] | 5.00 to 6.00
COCCOCC(=O)N1CCN(c2cnc(N)c(-c3nnc(-c4ccccc4)o3)n2)CC1 [Compound I-178, 1-(4-(5-amino-6-(5-phenyl-1,3,4-oxadiazol-2-yl)pyrazin-2-yl)piperazin-1-yl)-2-(2-methoxyethoxy)ethanone] | 6.00 to 7.00
Nc1ncc(-n2ccc(=O)cc2)nc1-c1nnc(-c2ccccc2)o1 [Compound I-286, 1-[5-amino-6-(5-phenyl-1,3,4-oxadiazol-2-yl)pyrazin-2-yl]pyridin-4-one] | > 7.00
NCCC(=O)N1CC=C(c2cnc(N)c(-c3nc4ccccc4[nH]3)n2)CC1 [Compound I-338, 3-amino-1-(4-(5-amino-6-(1H-benzo[d]imidazol-2-yl)pyrazin-2-yl)-5,6-dihydropyridin-1(2H)-yl)propan-1-one] | 6.00 to 7.00
CCC(CC)C(=O)N1CCN(c2cnc(N)c(-c3nc4ccccc4[nH]3)n2)CC1 [Compound I-175, 1-(4-(5-amino-6-(1H-benzo[d]imidazol-2-yl)pyrazin-2-yl)piperazin-1-yl)-2-ethylbutan-1-one] | 5.00 to 6.00
CCS(=O)(=O)NC1CN(c2cnc(N)c(-c3nnc(-c4ccccc4)o3)n2)C1 [Compound I-302, N-[1-[5-amino-6-(5-phenyl-1,3,4-oxadiazol-2-yl)pyrazin-2-yl]azetidin-3-yl]ethanesulfonamide] | 6.00 to 7.00
Nc1ncc(N2CCN(S(=O)(=O)c3ccoc3)CC2)nc1C(=O)Nc1ccccn1 [Compound I-119, 3-amino-6-(4-(furan-3-ylsulfonyl)piperazin-1-yl)-N-(pyridin-2-yl)pyrazine-2-carboxamide] | 6.00 to 7.00
Cc1ccc2nc(-c3nc(N4CCN(c5ncccn5)CC4)cnc3N)[nH]c2c1 [Compound I-35, 3-(6-methyl-1H-benzo[d]imidazol-2-yl)-5-(4-(pyrimidin-2-yl)piperazin-1-yl)pyrazin-2-amine] | 5.00 to 6.00
Nc1ncc(C2=CCN(S(=O)(=O)c3ccsc3)CC2)nc1-c1nc2ccccc2[nH]1 [Compound I-105, 3-(1H-benzo[d]imidazol-2-yl)-5-(1-(thiophen-3-ylsulfonyl)-1,2,3,6-tetrahydropyridin-4-yl)pyrazin-2-amine] | > 7.00
CCS(=O)(=O)N1CCC2(CCN(c3cnc(N)c(-c4nnc(-c5ccc(CNC)cc5)o4)n3)C2)C1 (stereo not shown) [Compound I-330, 5-(3-Ethylsulfonyl-3,7-diazaspiro[4.4]nonan-7-yl)-3-[5-[4-(methylaminomethyl)phenyl]-1,3,4-oxadiazol-2-yl]pyrazin-2-amine] | 5.00 to 6.00
